# Laboratory results taken from patent publication US6723680B2, “Composition for regulation of gametophytic self-incompatibility, control method of gametophytic self-incompatibility of a plant and the plant self-pollinated by using said control method” (Istech Co., Ltd., priority 2000, dated 2004).
# Like-named read-outs stand apart in the source and are kept apart here.
# Key:
# Assay type in all cases: in vivo
# Fuji apple [1] = experiment: Fruition rate of Fuji apple according to blooming period of treatment; conditions: 1 mM with siloxane spreader 0.0335%
# Method: To test the effect of a style-specific RNase inhibitor of the present invention in a practical cultivating environment, the style-specific RNase of the present invention was treated to Fuji apple that was cultivated in a greenhouse for research (located in Cheongsong-gun, Kyungsangpukdo, Republic of Korea). In the present invention, the experiment was performed under the environmental condition that can keep the Fuji apple, a representative plant having gametophytic self-incompatibility, a single species genetically. To determine the treatment period of a style-specific RNase inhibitor, the inhibitor was treated at the early blooming period (budding formation period˜prior to full blooming), the middle blooming period (full blooming) and the late blooming period (1 day after full blooming˜falling period of petal) respectively. A composition, which was manufactured by mixing the spreader of siloxane class (brand name: silhouette, Dongbu precision chemical company, Korea) with the inhibitor to the concentration of 0.0335%, was treated under the same condition of the Example 5-1, and the results were shown in Table 5.
# [2] = test system: wild-type tomato and Fuji apple; conditions: for the highest concentration not showing harmful effects of a medicine: in vivo; for the lowest concentration showing inhibiting effect: treated at the early blooming period
# Method: Moreover, to investigate preferable concentration of treatment of the regulation composition for gametophytic self-incompatibility of the present invention, […] ppm CuSO4 and ZnSO4 were treated to wild-type tomato and Fuji apple at the early blooming period and the harmful effects of a medicine and fruition rates were investigated (see FIGS. 6 and 7). Since absorption rate of the regulation composition for gametophytic self-incompatibility of the present invention can be increased by treating it with a spreader in cultivating fruit trees, the CuSO4 and ZnSO4 were treated with a spreader by a method of spraying on the fruit trees at a specific period, that is, the early blooming period. Thus, it was shown that fruits and plants that are pollinated by self-pollen could be acquired by the treatment of a specific concentration of CuSO4 and ZnSO4 in wild-type tomato and Fuji apple without harmful effects of the medicine. From the results, it can be concluded that an inhibitor composition of a style-specific RNase of the present invention is effective in inhibition of a style-specific RNase without respect to species, and preferable concentration of CuSO4, which is treated at the early blooming period, is at 100˜700 ppm and preferable concentration of ZnSO4 is at 100˜800 ppm. Furthermore, very high pollination rate, without harmful effects of a medicine, could be achieved by spraying the inhibitor composition for gametophytic self-incompatibility of the present invention, which was mixed with the desirable amount of spreader according to the manufacturers' instruction. Among the spreaders, the spreader of hexaconazole class, siloxane class and alkylaryl polyethoxylate class is preferable to achieve high fruition rate. The preferable concentration of the inhibitor composition for gametophytic self-incompatibility of the present invention was shown in table 1. When CuSO4 is used as an effective component of the style-specific RNase inhibitor as shown in the table 1, if the concentration of CuSO4 is below 100 ppm, it is difficult to achieve a stable fruition rate over 70% because it cannot inhibit RNase activity appropriately, on the other hand, if the concentration of CuSO4 is over 700 ppm, it is not economical because it can induce harmful effects of a medicine. Furthermore, when ZnSO4 is used as an effective component of the style-specific RNase inhibitor, if the concentration of ZnSO4 is below 100 ppm, it is difficult to achieve a stable fruition rate over 70% because it cannot inhibit RNase activity appropriately, on the other hand, if the concentration of ZnSO4 is over 800 ppm, it is not economical because it can induce harmful effects of a medicine.
# wild-type tomato = conditions: for Fruition rate: siloxane spreader 0.0335%, 4 days before full blooming; for concentration in which harmful effect of a medicine occurred: in vivo
# Method: To investigate the fruition rate and harmful effects of a medicine according to the concentration of style-specific RNase inhibitors, ZnSO4 and CuSO4, style-specific RNase inhibitors of the present invention, were treated to wild-type tomato with various concentration in 4 days before full blooming.
# Furthermore, to maximize the efficiency of the style-specific RNase inhibitor of the present invention as fruition control agents, ZnSO4 or CuSO4 was mixed with spreader of hexaconazole, siloxane and alkylaryl polyethoxylate class according to most appropriate usage amount by the manufacturer, and treated.
# A composition mixed with the spreader of siloxane class (brand name:silhouette, Dongbu precision chemical company, Korea) to 0.0335% was prepared and the composition was treated to wild-type tomato.
# Fuji apple [3] = conditions: for Fruition rate: siloxane spreader 0.0335%, 4 days before full blooming; for concentration in which harmful effect of a medicine occurred: in vivo
# Method: To investigate the fruition rate and harmful effect of a medicine according to the concentration of style-specific RNase inhibitors, ZnSO4 and CuSO4, style-specific RNase inhibitors of the present invention, were treated to Fuji apple with various concentration in 4 days before full blooming.
# Furthermore, to maximize the efficiency of the style-specific RNase inhibitor of the present invention as fruition control agents, ZnSO4 or CuSO4 was mixed with the spreader of siloxane class (brand name silhouette, Dongbu precision chemical company, Korea) at 0.0335%, and treated to the Fuji apple.
compound,measurement,setting,value
O=S(=O)([O-])[O-].[Zn+2] [ZnSO4],Fruition rate,Fuji apple [1]; 1 day after full blooming,0
same,Fruition rate,Fuji apple [1]; 1 day before blooming,0
same,Fruition rate,Fuji apple [1]; 2 days after full blooming,0
same,Fruition rate,Fuji apple [1]; 2 days before blooming,>32%
same,Fruition rate,Fuji apple [1]; 3 days before blooming,>71%
same,Fruition rate,Fuji apple [1]; 4 days before blooming,>93%
same,Fruition rate,Fuji apple [1]; 5 days before blooming,>92%
same,Fruition rate,Fuji apple [1]; full blooming,0
same,the highest concentration not showing harmful effects of a medicine,[2],800 ppm
same,the lowest concentration showing inhibiting effect,[2],100 ppm
same,Fruition rate,wild-type tomato; 20 ppm,0%
same,Fruition rate,wild-type tomato; 40 ppm,13%
same,Fruition rate,wild-type tomato; 60 ppm,31%
same,Fruition rate,wild-type tomato; 80 ppm,61%
same,Fruition rate,wild-type tomato; 100 ppm,99%
same,Fruition rate,wild-type tomato; 200 ppm,98%
same,Fruition rate,wild-type tomato; 300 ppm,93%
same,Fruition rate,wild-type tomato; 400 ppm,88%
same,Fruition rate,wild-type tomato; 500 ppm,85%
same,Fruition rate,wild-type tomato; 600 ppm,84%
same,Fruition rate,wild-type tomato; 700 ppm,74%
same,Fruition rate,wild-type tomato; 800 ppm,71%
same,Fruition rate,wild-type tomato; 900 ppm,62%
same,Fruition rate,wild-type tomato; 1000 ppm,0%
same,Fruition rate,wild-type tomato; 1100 ppm,0%
same,Fruition rate,wild-type tomato; 1200 ppm,0%
same,Fruition rate,wild-type tomato; 1300 ppm,0%
same,Fruition rate,wild-type tomato; 1400 ppm,0%
same,Fruition rate,wild-type tomato; 1500 ppm,0%
same,concentration in which harmful effect of a medicine occurred,wild-type tomato,≥ 900 ppm
same,Fruition rate,Fuji apple [3]; 20 ppm,0%
same,Fruition rate,Fuji apple [3]; 40 ppm,5%
same,Fruition rate,Fuji apple [3]; 60 ppm,17%
same,Fruition rate,Fuji apple [3]; 80 ppm,36%
same,Fruition rate,Fuji apple [3]; 100 ppm,72%
same,Fruition rate,Fuji apple [3]; 200 ppm,79%
same,Fruition rate,Fuji apple [3]; 300 ppm,93%
same,Fruition rate,Fuji apple [3]; 400 ppm,88%
same,Fruition rate,Fuji apple [3]; 500 ppm,85%
same,Fruition rate,Fuji apple [3]; 600 ppm,84%
same,Fruition rate,Fuji apple [3]; 700 ppm,74%
same,Fruition rate,Fuji apple [3]; 800 ppm,70%
same,Fruition rate,Fuji apple [3]; 900 ppm,44%
same,Fruition rate,Fuji apple [3]; 1000 ppm,27%
same,Fruition rate,Fuji apple [3]; 1100 ppm,9%
same,Fruition rate,Fuji apple [3]; 1200 ppm,0%
same,Fruition rate,Fuji apple [3]; 1300 ppm,0%
same,Fruition rate,Fuji apple [3]; 1400 ppm,0%
same,Fruition rate,Fuji apple [3]; 1500 ppm,0%
same,concentration in which harmful effect of a medicine occurred,Fuji apple [3],≥ 900 ppm
O=S(=O)([O-])[O-].[Cu+2] [CuSO4],Fruition rate,Fuji apple [1]; 1 day after full blooming,0
same,Fruition rate,Fuji apple [1]; 1 day before blooming,0
same,Fruition rate,Fuji apple [1]; 2 days after full blooming,0
same,Fruition rate,Fuji apple [1]; 2 days before blooming,>24%
same,Fruition rate,Fuji apple [1]; 3 days before blooming,>70%
same,Fruition rate,Fuji apple [1]; 4 days before blooming,>86%
same,Fruition rate,Fuji apple [1]; 5 days before blooming,>91%
same,Fruition rate,Fuji apple [1]; full blooming,0
same,the highest concentration not showing harmful effects of a medicine,[2],700 ppm
same,the lowest concentration showing inhibiting effect,[2],100 ppm
same,Fruition rate,wild-type tomato; 20 ppm,0%
same,Fruition rate,wild-type tomato; 40 ppm,15%
same,Fruition rate,wild-type tomato; 60 ppm,41%
same,Fruition rate,wild-type tomato; 80 ppm,59%
same,Fruition rate,wild-type tomato; 100 ppm,97%
same,Fruition rate,wild-type tomato; 200 ppm,92%
same,Fruition rate,wild-type tomato; 300 ppm,88%
same,Fruition rate,wild-type tomato; 400 ppm,85%
same,Fruition rate,wild-type tomato; 500 ppm,77%
same,Fruition rate,wild-type tomato; 600 ppm,73%
same,Fruition rate,wild-type tomato; 700 ppm,73%
same,Fruition rate,wild-type tomato; 800 ppm,44%
same,Fruition rate,wild-type tomato; 900 ppm,16%
same,Fruition rate,wild-type tomato; 1000 ppm,7%
same,Fruition rate,wild-type tomato; 1100 ppm,0%
same,Fruition rate,wild-type tomato; 1200 ppm,0%
same,Fruition rate,wild-type tomato; 1300 ppm,0%
same,Fruition rate,wild-type tomato; 1400 ppm,0%
same,Fruition rate,wild-type tomato; 1500 ppm,0%
same,concentration in which harmful effect of a medicine occurred,wild-type tomato,≥ 800 ppm
same,Fruition rate,Fuji apple [3]; 20 ppm,0%
same,Fruition rate,Fuji apple [3]; 40 ppm,0%
same,Fruition rate,Fuji apple [3]; 60 ppm,11%
same,Fruition rate,Fuji apple [3]; 80 ppm,39%
same,Fruition rate,Fuji apple [3]; 100 ppm,70%
same,Fruition rate,Fuji apple [3]; 200 ppm,76%
same,Fruition rate,Fuji apple [3]; 300 ppm,88%
same,Fruition rate,Fuji apple [3]; 400 ppm,85%
same,Fruition rate,Fuji apple [3]; 500 ppm,77%
same,Fruition rate,Fuji apple [3]; 600 ppm,73%
same,Fruition rate,Fuji apple [3]; 700 ppm,73%
same,Fruition rate,Fuji apple [3]; 800 ppm,52%
same,Fruition rate,Fuji apple [3]; 900 ppm,31%
same,Fruition rate,Fuji apple [3]; 1000 ppm,21%
same,Fruition rate,Fuji apple [3]; 1100 ppm,11%
same,Fruition rate,Fuji apple [3]; 1200 ppm,0%
same,Fruition rate,Fuji apple [3]; 1300 ppm,0%
same,Fruition rate,Fuji apple [3]; 1400 ppm,0%
same,Fruition rate,Fuji apple [3]; 1500 ppm,0%
same,concentration in which harmful effect of a medicine occurred,Fuji apple [3],≥ 800 ppm
